“And” between values parts separate entries of the source, which are not always exact repeats. Identical values can stand only once.

The source of these data is patent US20180237358A1, “RADIOISOTOPE 18F SUBSTITUTED THIAMINE, AND SYNTHESIS METHOD AND USE THEREOF” (ZHONGSHAN HOSPITAL FUDAN UNIVERSITY, priority 2015, published 2018).

Data set [1] is described as follows: small animal PET/CT scan of two strains of mice (summary statement). It counts as in vivo, mice (ICR and C57BL/6). As to conditions: ICR and C57BL/6 mice. The source says:
is successfully substituted with ^18F atom, and a fluorine-substituted thiamine (Formula I) and a hydrobromide thereof (Formula II) are synthesized. Subsequently, the present inventors scan two strains of mice (ICR and C57BL/6) using the small animal PET/CT.

Data set [2] in a line: PET/CT scan of ICR mice with ^18F substituted thiamine as tracer, whole brain ROI (SUV, TAC). It counts as in vivo. As to conditions: control group ICR mice (normal diet), two mice.
The nature of data set [3]: PET/CT scan of C57BL/6 mice with ^18F substituted thiamine as tracer, whole brain ROI (SUV, TAC). Type of data set: in vivo. An excerpt: 1. Experiments on Scanning of C57BL/6 Mice by Using ^18F Substituted Thiamine as a PET/CT Tracer.
(§1) 1.1. Experimental Drug: ^18F Substituted Thiamine (Synthesized and Identified as in Example 1).
1.2. Animals and treatments: 8-week-old C57BL/6 mice, SPF grade, purchased from Shanghai SLAC Laboratory Animal Co., Ltd, were housed in a barrier environment and assigned to a treatment group and a control group, randomly. The animals in the treatment group were fed with thiamine deficient diet (n=2), and the animals in the control group were fed with normal diet (n=3). After 28 days, PET/CT scan of the mice was performed.
1.3. PET/CT scan of the mice: Small animal PET/CT scanner (Inveon, Siemens), thickness of PET layer: 0.78 mm, 128*128 matrix, energy window: 350-650 kev, CT tube current: 500 uA, tube voltage: 80 kv; scan mode: dynamic scan; scan time: 90 min.
1.4. Processing of PET/CT image: After the acquisition, the images were reconstructed with two iterations of 3D OSEM. The whole brain was delimited as the region of interest (ROI) by the image processing software coming with the Inveon small animal PET/CT scanner. The SUV and TAC within 90 min were calculated.

Data set [4] can be described thus: PET/CT scan of ICR mice with ^18F substituted thiamine as tracer, whole brain ROI (SUV, TAC). It counts as in vivo.
Description: 1. Experiments on Scanning of ICR Mice by Using ^18F Substituted Thiamine as a PET/CT Tracer.
as §1
1.2. Animals and treatments: 8-week-old ICR mice, SPF grade, purchased from Shanghai SLAC Laboratory Animal Co., Ltd, were housed in a barrier environment and assigned to a treatment group and a control group randomly. The animals in the treatment group were fed with thiamine deficient diet (n=3), and the animals in the control group were fed with normal diet (n=3). After 28 days, PET/CT scan of the mice was performed.
1.3. PET/CT scan of the mice: small animal PET/CT scanner (Inveon, Siemens) thickness of PET layer: 0.78 mm, 128*128 matrix, energy window: 350-650 kev, CT tube current: 500 uA, tube voltage: 80 kv; scan mode: dynamic scan; scan time: 90 min.
1.4. Processing of PET/CT image: After the acquisition, the images were reconstructed with two iterations of 3D OSEM. The whole brain was delimited as the region of interest (ROI) by the image processing software coming with the Inveon small animal PET/CT scanner. The Standard uptake value (SUV) and TAC within 90 min were calculated.

On to `Br.Cc1ncc(C[n+]2csc(CC[18F])c2C)c(N)n1.[Br-]` [^18F substituted thiamine hydrobromide], for which, in data set [1], the “uptake in the brain of thiamine-deficient model mice versus control mice” value is “significantly higher”. Besides, the blood-brain barrier penetration entry in data set [1] (small animal PET/CT) is “successfully penetrates the blood-brain barrier”.
As to `Cc1ncc(C[n+]2csc(CC[18F])c2C)c(N)n1` [^18F substituted thiamine, 3-[(4-Amino-2-methylpyrimidin-5-yl)methyl]-5-(2-fluoroethyl)-4-methylthiazolium], in data set [2], the “SUV value at absorption peak in the brain” value was 0.18 and 0.36; the “time of absorption peak in the brain” value is recorded as “about 20 min”. The “uptake in the brains of thiamine-deficient mice versus control (images)” value in data set [3] (C57BL/6 mice, FIGS. 12 and 13) is “obviously increased”. Also, the “SUV value at absorption peak in the brain” value in data set [3] (control group C57BL/6 mice (normal diet), individual mice) is 0.17 and 0.25 and 0.3. Moreover, the “SUV value at peak of accumulation in the brain” value in data set [3] (thiamine-deficient group C57BL/6 mice, individual mice, at 90 min) was 0.48 and 0.55. In data set [3] (thiamine-deficient group C57BL/6 mice, two mice, rose continuously over 90 min), the “time of peak of accumulation in the brain” value amounted to 90 min. Moreover, the “uptake in the brains of thiamine-deficient group versus control (images)” value in data set [4] (ICR mice, FIGS. 8 and 9) is recorded as “obviously increased”. Besides, the “SUV value at peak of absorption in the brain” value in data set [4] (thiamine-deficient group ICR mice, individual mice) was 0.98 and 0.97 and 0.61. Besides, the “time of peak of absorption in the brain” value in data set [4] (thiamine-deficient group ICR mice, individual mice, 90 min dynamic scan) was 22.5 min and 35 min and 65 min.
